{"source": "ChEMBL document CHEMBL4229384", "about": "“Success stories of natural product-based hybrid molecules for multi-factorial diseases” (Eur J Med Chem, 2018)", "key": {"UCLA P-3": {"system": "UCLA P-3", "assay": "Antiproliferative activity against human UCLA-P3 cells", "type": "functional, cell-based"}, "MOLT-4": {"system": "MOLT-4", "assay": "Antiproliferative activity against human MOLT4 cells", "type": "functional, cell-based"}, "[1]": {"target": "Amyloid-beta precursor protein (Homo sapiens, UniProt P05067)", "sequence (P05067 whole entry)": "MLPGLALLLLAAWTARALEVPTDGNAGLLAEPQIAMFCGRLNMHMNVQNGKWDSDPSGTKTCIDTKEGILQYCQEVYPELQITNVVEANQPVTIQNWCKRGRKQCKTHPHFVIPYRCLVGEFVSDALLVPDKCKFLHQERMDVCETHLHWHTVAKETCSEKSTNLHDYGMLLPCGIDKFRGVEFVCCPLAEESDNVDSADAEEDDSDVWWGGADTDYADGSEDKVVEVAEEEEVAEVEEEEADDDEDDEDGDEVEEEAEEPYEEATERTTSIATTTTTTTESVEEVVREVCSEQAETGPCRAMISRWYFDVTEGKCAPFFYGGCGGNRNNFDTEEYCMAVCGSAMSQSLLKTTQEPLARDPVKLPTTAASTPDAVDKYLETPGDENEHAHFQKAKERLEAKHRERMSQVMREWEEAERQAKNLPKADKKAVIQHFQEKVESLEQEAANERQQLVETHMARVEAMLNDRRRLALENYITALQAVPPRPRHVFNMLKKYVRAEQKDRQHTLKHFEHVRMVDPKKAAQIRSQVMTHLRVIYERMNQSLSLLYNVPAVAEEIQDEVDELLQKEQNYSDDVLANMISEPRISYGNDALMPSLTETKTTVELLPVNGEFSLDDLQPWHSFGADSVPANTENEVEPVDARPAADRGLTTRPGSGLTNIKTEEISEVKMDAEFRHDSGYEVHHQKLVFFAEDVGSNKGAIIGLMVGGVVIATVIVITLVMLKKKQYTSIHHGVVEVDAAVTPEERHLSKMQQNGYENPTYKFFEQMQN", "assay": "Inhibition of beta amyloid (unknown origin) deposition"}, "[2]": {"assay": "Antioxidant activity assessed as reduction in oxidative stress", "type": "functional"}, "[3]": {"system": "Mycobacterium tuberculosis", "assay": "Antitubercular activity against Mycobacterium tuberculosis H37Rv", "type": "functional"}, "[4]": {"target": "Nitric oxide synthase, inducible (Rattus norvegicus, UniProt Q06518)", "sequence (Q06518 whole entry)": "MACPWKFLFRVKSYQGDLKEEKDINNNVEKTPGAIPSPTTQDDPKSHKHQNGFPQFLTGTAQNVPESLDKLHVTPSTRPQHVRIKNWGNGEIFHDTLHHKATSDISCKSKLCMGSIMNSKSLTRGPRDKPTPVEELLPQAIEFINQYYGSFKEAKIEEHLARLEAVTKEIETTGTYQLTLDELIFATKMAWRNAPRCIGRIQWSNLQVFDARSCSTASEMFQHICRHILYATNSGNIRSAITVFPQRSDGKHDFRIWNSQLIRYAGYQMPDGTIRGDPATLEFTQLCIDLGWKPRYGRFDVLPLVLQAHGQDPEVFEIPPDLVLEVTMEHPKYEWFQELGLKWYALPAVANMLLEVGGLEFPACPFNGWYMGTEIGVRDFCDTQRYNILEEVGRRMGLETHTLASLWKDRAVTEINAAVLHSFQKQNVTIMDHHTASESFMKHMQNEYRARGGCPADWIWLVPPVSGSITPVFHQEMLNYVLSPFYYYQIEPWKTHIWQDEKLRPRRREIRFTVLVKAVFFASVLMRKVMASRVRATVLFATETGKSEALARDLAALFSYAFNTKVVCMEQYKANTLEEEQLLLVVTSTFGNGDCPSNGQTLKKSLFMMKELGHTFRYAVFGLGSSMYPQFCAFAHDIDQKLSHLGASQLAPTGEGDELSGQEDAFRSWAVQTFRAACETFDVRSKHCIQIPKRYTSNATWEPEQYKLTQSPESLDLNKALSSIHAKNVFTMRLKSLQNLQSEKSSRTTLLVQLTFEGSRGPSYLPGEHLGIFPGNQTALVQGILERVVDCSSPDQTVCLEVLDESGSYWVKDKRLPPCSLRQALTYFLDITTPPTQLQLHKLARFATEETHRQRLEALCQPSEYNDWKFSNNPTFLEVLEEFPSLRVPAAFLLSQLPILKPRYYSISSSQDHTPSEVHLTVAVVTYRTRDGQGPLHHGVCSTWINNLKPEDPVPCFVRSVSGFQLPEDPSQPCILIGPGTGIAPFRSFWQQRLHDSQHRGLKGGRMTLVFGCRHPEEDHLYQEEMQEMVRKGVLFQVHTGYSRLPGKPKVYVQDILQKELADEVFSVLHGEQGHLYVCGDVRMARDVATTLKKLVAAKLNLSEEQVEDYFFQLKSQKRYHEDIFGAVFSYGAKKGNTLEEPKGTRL", "assay": "Inhibition of rat iNOS after 12 to 24 hrs in presence of [gamma32P]ATP by electrophoretic mobility shift assays"}, "[5]": {"assay": "Cytotoxicity against mouse […] cells assessed as reduction in cell viability after 24 to 72 hrs by MTT assay", "type": "cell-based"}, "[6]": {"assay": "Cytotoxicity against bovine GM07373 cells assessed as reduction in cell viability after 24 to 72 hrs by MTT assay", "type": "cell-based", "settings": "Bos taurus"}, "IGR-1": {"system": "IGR-1", "assay": "Cytotoxicity against human IGR-1 cells assessed as reduction in cell viability after 24 to 72 hrs by MTT assay", "type": "functional, cell-based"}, "P338": {"system": "P338", "assay": "Cytotoxicity against mouse […] cells assessed as reduction in cell viability after 24 to 72 hrs by MTT assay", "type": "functional, cell-based"}, "Acetylcholinesterase [7]": {"target": "T1, Acetylcholinesterase (Bos taurus, UniProt P23795)", "T1 sequence (P23795 whole entry)": "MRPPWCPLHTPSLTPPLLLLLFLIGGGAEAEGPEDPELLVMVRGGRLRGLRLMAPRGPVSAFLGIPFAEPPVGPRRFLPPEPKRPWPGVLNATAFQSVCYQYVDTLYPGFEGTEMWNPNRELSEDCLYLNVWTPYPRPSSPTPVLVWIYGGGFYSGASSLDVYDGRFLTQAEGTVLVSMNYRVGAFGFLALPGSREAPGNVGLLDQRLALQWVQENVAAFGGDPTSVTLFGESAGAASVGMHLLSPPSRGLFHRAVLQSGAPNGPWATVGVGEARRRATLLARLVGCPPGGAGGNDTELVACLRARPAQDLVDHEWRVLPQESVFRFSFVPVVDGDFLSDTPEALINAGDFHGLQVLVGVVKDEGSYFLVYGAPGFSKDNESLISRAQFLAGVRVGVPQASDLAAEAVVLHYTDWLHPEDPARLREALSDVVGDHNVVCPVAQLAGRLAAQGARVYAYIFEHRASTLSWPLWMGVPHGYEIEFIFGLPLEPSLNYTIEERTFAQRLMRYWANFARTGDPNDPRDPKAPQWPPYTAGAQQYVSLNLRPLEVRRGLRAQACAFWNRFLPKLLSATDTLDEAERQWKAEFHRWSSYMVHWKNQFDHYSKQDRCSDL", "assay": "Inhibition of bovine erythrocyte AchE using acetylthiocholine iodide as substrate after 15 mins by spectrophotometric analysis"}, "[8]": {"target": "T2, Receptor tyrosine-protein kinase erbB-2 (Homo sapiens, UniProt P04626)", "T2 sequence (P04626 whole entry)": "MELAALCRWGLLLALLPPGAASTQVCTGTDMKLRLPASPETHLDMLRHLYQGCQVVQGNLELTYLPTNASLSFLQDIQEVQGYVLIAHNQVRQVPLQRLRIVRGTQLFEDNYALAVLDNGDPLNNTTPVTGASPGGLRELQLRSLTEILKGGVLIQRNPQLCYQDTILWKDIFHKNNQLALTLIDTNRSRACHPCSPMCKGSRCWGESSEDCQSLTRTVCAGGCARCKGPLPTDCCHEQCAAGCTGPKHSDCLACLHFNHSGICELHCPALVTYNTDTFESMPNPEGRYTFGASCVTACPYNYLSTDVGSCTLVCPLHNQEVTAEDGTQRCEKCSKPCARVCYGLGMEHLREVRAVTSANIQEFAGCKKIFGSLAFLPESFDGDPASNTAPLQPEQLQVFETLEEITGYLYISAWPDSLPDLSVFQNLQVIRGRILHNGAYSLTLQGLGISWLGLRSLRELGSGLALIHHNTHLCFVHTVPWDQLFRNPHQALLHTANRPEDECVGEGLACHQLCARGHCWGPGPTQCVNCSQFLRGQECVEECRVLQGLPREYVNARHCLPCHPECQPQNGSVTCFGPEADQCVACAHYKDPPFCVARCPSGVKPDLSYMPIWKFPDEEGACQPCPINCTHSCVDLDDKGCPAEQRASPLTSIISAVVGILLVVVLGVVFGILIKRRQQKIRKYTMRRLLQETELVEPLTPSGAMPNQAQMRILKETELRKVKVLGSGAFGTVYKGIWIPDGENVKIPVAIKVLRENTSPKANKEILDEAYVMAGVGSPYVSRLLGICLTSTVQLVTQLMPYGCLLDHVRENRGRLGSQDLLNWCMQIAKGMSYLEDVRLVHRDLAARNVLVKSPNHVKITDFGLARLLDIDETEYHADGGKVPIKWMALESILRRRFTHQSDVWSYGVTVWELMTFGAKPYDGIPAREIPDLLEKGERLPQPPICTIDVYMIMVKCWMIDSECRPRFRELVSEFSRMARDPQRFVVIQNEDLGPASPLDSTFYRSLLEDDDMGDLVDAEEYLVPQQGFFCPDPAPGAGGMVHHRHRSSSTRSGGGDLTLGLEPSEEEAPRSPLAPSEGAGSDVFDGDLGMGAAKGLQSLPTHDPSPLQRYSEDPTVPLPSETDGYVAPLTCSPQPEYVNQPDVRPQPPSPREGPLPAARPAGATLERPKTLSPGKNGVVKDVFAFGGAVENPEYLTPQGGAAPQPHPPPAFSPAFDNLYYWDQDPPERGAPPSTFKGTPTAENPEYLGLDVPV", "assay": "Inhibition of HER2 in human MCF-7 cells", "type": "cell-based"}, "Estrogen receptor [9]": {"target": "T3, Estrogen receptor (Homo sapiens, UniProt P03372)", "T3 sequence (P03372 whole entry)": "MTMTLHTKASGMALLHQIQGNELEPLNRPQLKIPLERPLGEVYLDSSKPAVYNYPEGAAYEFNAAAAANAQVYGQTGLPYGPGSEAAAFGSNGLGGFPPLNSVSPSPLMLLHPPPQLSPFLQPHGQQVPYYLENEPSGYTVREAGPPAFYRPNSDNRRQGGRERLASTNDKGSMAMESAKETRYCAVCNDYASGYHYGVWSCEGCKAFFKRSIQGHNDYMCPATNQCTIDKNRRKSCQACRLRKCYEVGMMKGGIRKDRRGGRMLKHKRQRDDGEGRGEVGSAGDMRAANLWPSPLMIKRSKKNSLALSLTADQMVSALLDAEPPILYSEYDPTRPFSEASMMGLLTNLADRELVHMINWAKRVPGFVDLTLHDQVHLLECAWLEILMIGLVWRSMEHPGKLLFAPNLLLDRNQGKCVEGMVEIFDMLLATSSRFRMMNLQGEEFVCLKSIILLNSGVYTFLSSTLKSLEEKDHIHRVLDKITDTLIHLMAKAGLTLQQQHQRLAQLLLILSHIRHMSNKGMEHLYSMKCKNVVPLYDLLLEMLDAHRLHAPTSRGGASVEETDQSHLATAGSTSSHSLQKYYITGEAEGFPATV", "assay": "Inhibition of estrogen receptor in human MCF-7 cells", "type": "cell-based"}, "Acetylcholinesterase [10]": {"target": "Acetylcholinesterase (Electrophorus electricus, UniProt O42275)", "sequence (O42275 whole entry)": "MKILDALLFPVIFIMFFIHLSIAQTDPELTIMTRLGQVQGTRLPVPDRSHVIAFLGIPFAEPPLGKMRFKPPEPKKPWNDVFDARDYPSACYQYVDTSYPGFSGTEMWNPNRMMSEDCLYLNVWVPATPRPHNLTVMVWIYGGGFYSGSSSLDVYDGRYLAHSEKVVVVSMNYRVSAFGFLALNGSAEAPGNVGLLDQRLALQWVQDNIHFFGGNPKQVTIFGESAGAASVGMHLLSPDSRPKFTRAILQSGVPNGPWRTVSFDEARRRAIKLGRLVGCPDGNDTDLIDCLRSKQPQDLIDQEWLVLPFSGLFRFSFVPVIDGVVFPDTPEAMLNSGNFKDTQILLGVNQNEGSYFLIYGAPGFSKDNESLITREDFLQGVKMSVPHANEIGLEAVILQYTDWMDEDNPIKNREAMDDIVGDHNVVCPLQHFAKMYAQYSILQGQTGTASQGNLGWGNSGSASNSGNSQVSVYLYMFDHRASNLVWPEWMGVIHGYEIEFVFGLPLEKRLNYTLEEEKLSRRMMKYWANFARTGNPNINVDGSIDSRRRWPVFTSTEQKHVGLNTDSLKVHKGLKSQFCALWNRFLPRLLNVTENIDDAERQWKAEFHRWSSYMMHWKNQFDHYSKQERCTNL", "assay": "Inhibition of electric eel AChE using acetylthiocholine iodide as substrate measured for 120 secs by spectrophotometric analysis"}, "[11]": {"target": "T4, Phospholipase A2, membrane associated (Homo sapiens) (UniProt P14555)", "T4 sequence (whole entry)": "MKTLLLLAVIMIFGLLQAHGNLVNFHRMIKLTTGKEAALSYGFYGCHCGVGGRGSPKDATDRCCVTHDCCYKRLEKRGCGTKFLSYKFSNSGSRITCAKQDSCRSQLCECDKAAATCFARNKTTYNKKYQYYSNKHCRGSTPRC", "assay": "Inhibition of human sPLA2-2A at 100 uM relative to control"}, "[12]": {"target": "T4, Phospholipase A2, membrane associated (Homo sapiens)", "assay": "Inhibition of human sPLA2-2A assessed as reduction in PGE2 level at 10 uM relative to control"}, "[13]": {"target": "T4, Phospholipase A2, membrane associated (Homo sapiens)", "assay": "Inhibition of human sPLA2-2A assessed as reduction in nitric oxide level at 10 uM relative to control"}, "[14]": {"target": "T5, Estrogen receptor (Homo sapiens) (UniProt P03372)", "T5 sequence (whole entry)": "T3 sequence (P03372 whole entry)", "assay": "Displacement of [3H] estradiol from human estrogen receptor alpha after 18 hrs by scintillation counting analysis"}, "Estrogen receptor [15]": {"target": "T3, Estrogen receptor", "assay": "Inhibition of human estrogen receptor alpha expressed in HEK293 cells assessed as reduction in estrogen-induced transcriptional activation after 6 hrs by beta galactosidase reporter gene assay", "type": "cell-based"}, "Estrogen receptor [16]": {"target": "T3, Estrogen receptor", "assay": "Inhibition of human estrogen receptor alpha expressed in human LNCAP cells assessed as reduction in estrogen-induced transcriptional activation after 6 hrs by beta galactosidase reporter gene assay", "type": "cell-based"}, "Estrogen receptor [17]": {"target": "T3, Estrogen receptor", "assay": "Inhibition of human estrogen receptor alpha expressed in human MDA-MB-231 cells assessed as reduction in estrogen-induced transcriptional activation after 6 hrs by beta galactosidase reporter gene assay", "type": "cell-based"}, "Estrogen receptor [18]": {"target": "T3, Estrogen receptor", "assay": "Inhibition of human estrogen receptor alpha expressed in human MCF7 cells assessed as reduction in estrogen-induced transcriptional activation after 6 hrs by beta galactosidase reporter gene assay", "type": "cell-based"}, "[19]": {"target": "T2, Receptor tyrosine-protein kinase erbB-2", "assay": "Inhibition of HER2 in human MCF-7 cells after 24 hrs by immunoblotting analysis", "type": "cell-based"}, "SK-BR-3": {"system": "SK-BR-3", "assay": "Growth inhibition of human SKBR3 cells", "type": "functional, cell-based"}}, "data": [{"smiles": "CCN[C@H]1CO[C@@H](O[C@H]2[C@H](OC[C@]34C#C/C=C\\C#C[C@H]5N(C(=O)OCCS(=O)(=O)c6ccccc6)c6ccccc6[C@@]36O[C@]56CCC4)O[C@H](C)[C@@H](NO[C@H]3C[C@H](O)[C@H](SC(=O)c4c(C)c(I)c(O[C@@H]5O[C@@H](C)[C@H](O)[C@@H](OC)[C@H]5O)c(OC)c4OC)[C@@H](C)O3)[C@@H]2O)C[C@@H]1OC", "values": [{"measurement": "IC50", "setting": "UCLA P-3", "result": 1, "unit": "nM"}, {"measurement": "IC50", "setting": "MOLT-4", "result": 1, "unit": "nM"}]}, {"smiles": "O=C(CCCCC1CCSS1)NCCCNc1c2c(nc3cc(Cl)ccc13)CCCC2", "note": "(configuration not stated) [LIPOCRINE]", "values": [{"measurement": "IC50", "setting": "[1]", "result": 45000, "unit": "nM"}, {"measurement": "IC50", "setting": "[2]", "result": 10000, "unit": "nM"}]}, {"smiles": "COC(=O)[C@]1(C)CCC[C@@]2(C)[C@@H]3CC[C@@]4(C)C[C@]3(CC[C@@H]21)C/C4=N\\NC(=O)c1ccncc1", "values": [{"measurement": "MIC", "setting": "[3]", "result": "10 to 20", "unit": "µg/mL"}]}, {"smiles": "CC1(C)CC[C@]2(C(=O)O)CC[C@]3(C)C(=CC[C@@H]4[C@@]5(C)C=CC(=O)C=C5CC[C@]43C)[C@@H]2C1", "values": [{"measurement": "IC50", "setting": "[4]", "result": 900, "unit": "nM"}]}, {"smiles": "CC(C)[C@@H](C)/C=C/[C@@H](C)[C@H]1CC[C@H]2c3ccc4c(c3CC[C@]12C)C(=O)c1c(O)ccc(O)c1C4=O", "values": [{"measurement": "IC50", "setting": "[5]", "result": 23000, "unit": "nM"}, {"measurement": "IC50", "setting": "[6]", "result": 34000, "unit": "nM"}, {"measurement": "IC50", "setting": "IGR-1", "result": 23000, "unit": "nM"}, {"measurement": "IC50", "setting": "P338", "result": 49000, "unit": "nM"}]}, {"smiles": "C[C@@]12CC[C@@H]3[C@@](CC[C@H]4[C@@]3(C)CCC[C@@]4(C)C(=O)O)(C/C1=N\\NC(=O)c1ccccn1)C2", "values": [{"measurement": "MIC", "setting": "[3]", "result": "10 to 20", "unit": "µg/mL"}]}, {"smiles": "CC1CCC2CC(Cc3nc4ccccc4c(N)c32)C1", "note": "(configuration not stated)", "values": [{"measurement": "IC50", "setting": "Acetylcholinesterase [7]", "result": 1.3, "unit": "nM"}]}, {"smiles": "CCN[C@H]1CO[C@@H](O[C@H]2[C@H](OCOC[C@@]34C#CCCC#C[C@@H]5N(C(=O)OCCS(=O)(=O)c6ccccc6)c6ccccc6[C@]36O[C@@]56CCC4)O[C@H](C)[C@@H](NO[C@H]3C[C@H](O)[C@H](SC(=O)c4c(C)c(I)c(O[C@@H]5O[C@@H](C)[C@H](O)[C@@H](OC)[C@H]5O)c(OC)c4OC)[C@@H](C)O3)[C@@H]2O)C[C@@H]1OC", "values": [{"measurement": "IC50", "setting": "UCLA P-3", "result": 0.1, "unit": "nM"}, {"measurement": "IC50", "setting": "MOLT-4", "result": 160, "unit": "nM"}]}, {"smiles": "CO[C@H]1/C=C\\C=C(/C)C(=O)NC2=CC(=O)C(NCC#CCC[C@@H]3C[C@H]4[C@@H]5CCc6cc(O)ccc6[C@H]5CC[C@]4(C)[C@H]3O)=C(C[C@@H](C)C[C@H](OC)[C@H](O)[C@@H](C)/C=C(\\C)[C@@H]1OC(N)=O)C2=O", "note": "(stereo in doubt)", "values": [{"measurement": "IC50", "setting": "[8]", "result": 100, "unit": "nM"}, {"measurement": "IC50", "setting": "Estrogen receptor [9]", "result": 220, "unit": "nM"}]}, {"smiles": "COc1ccc2c3c1O[C@H]1C[C@@H](O)CC[C@@]31CCN(CCCCCCN1CC[C@@]34C=C[C@H](O)C[C@@H]3Oc3c(OC)ccc(c34)C1)C2", "values": [{"measurement": "IC50", "setting": "Acetylcholinesterase [10]", "result": 450, "unit": "nM"}]}, {"smiles": "C[C@@H](C1=CC[C@@H]2[C@@H]3[C@@H](O)[C@H](O)[C@H]4C[C@@H](O)CC[C@]4(C)[C@H]3CC[C@]12C)[C@@H](O)C1=CC(=O)OC1O", "note": "(some centres not stated)", "values": [{"measurement": "inhibition", "setting": "[11]", "result": 63, "unit": "%"}, {"measurement": "inhibition", "setting": "[12]", "result": 72, "unit": "%"}, {"measurement": "inhibition", "setting": "[13]", "result": 64, "unit": "%"}]}, {"smiles": "C[C@]12CC[C@@H]3c4ccc(O)cc4CC[C@H]3[C@@H]1CC[C@@]2(O)C#CC(=O)OCC1CC#C/C=C\\C#CCC1", "note": "(some centres not stated)", "values": [{"measurement": "Activity", "setting": "[14]", "result": 0.51, "unit": "µM"}, {"measurement": "IC50", "setting": "Estrogen receptor [15]", "result": 10000, "unit": "nM"}, {"measurement": "IC50", "setting": "Estrogen receptor [16]", "result": 33000, "unit": "nM"}, {"measurement": "IC50", "setting": "Estrogen receptor [17]", "result": 48000, "unit": "nM"}, {"measurement": "IC50", "setting": "Estrogen receptor [18]", "result": 31000, "unit": "nM"}]}, {"smiles": "CO[C@H]1/C=C\\C=C(/C)C(=O)NC2=CC(=O)C(NCCCCNC3=C4C[C@@H](C)C[C@H](OC)[C@H](O)[C@@H](C)/C=C(\\C)[C@H](OC(N)=O)[C@@H](OC)/C=C\\C=C(/C)C(=O)NC(=CC3=O)C4=O)=C(C[C@@H](C)C[C@H](OC)[C@H](O)[C@@H](C)/C=C(\\C)[C@@H]1OC(N)=O)C2=O", "values": [{"measurement": "IC50", "setting": "[19]", "result": 60, "unit": "nM"}, {"measurement": "IC50", "setting": "SK-BR-3", "result": 20, "unit": "nM"}]}]}
